Reference: article PMC10136147, “Bacillus subtilis YtpP and Thioredoxin A Are New Players in the Coenzyme-A-Mediated Defense Mechanism against Cellular Stress” (Antioxidants, 2023)

Tests used:
[1] = molecular target: T1, TrxA (Bacillus subtilis, UniProt P14949); assay: HPLC ([…] nm) of released CoA; anti-CoA Western blot; assay type: biochemical; conditions: CoA released from 6 uM CoA-MsrA or CoA-PRDX5 by 60 uM enzyme, 1 h, 37 C
T1 construct: about 11 kDa, N-terminal 6xHis tag (pET28a), E. coli BLR(DE3)
T1 sequence (P14949 1-104): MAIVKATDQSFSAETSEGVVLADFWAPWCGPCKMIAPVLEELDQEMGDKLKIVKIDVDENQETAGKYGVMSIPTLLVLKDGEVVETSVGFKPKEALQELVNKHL

[2] = molecular target: T2, MsrA (Corynebacterium diphtheriae, UniProt Q6NEL2); assay: anti-CoA Western blot after in vitro CoAlation; assay type: binding; conditions: covalent mixed disulfide with cysteine; protein:CoA:H2O2 1:3:10, RT, 30 min; monomer and oligomer bands
T2 construct: 26 kDa
T2 sequence (Q6NEL2 1-220): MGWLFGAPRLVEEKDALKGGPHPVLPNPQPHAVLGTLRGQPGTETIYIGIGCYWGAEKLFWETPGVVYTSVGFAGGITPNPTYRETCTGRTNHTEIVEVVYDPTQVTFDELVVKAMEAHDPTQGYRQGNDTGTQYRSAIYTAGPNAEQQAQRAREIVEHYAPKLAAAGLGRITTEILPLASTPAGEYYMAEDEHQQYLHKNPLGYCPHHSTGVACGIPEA

[3] = molecular target: YtpP (Bacillus subtilis, UniProt O34357, C28S); assay: anti-CoA Western blot after incubation with CoAlated protein; assay type: binding; conditions: covalent; CoA transferred from the CoAlated protein, 30 min, 37 C
YtpP (Bacillus subtilis, UniProt O34357, C28S), sequence (O34357 whole entry C28S): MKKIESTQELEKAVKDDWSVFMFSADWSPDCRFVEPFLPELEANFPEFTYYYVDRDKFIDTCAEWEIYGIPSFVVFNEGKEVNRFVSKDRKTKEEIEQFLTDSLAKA

[4] = molecular target: T3, GAPDH (Staphylococcus aureus, UniProt Q6GIL8); assay: anti-CoA ELISA and Western blot after in vitro CoAlation; assay type: binding; conditions: covalent mixed disulfide with cysteine; protein:CoA:H2O2 1:3:10, RT, 30 min; reversed by 10 mM DTT
T3 construct: gene gapA1
T3 sequence (Q6GIL8 1-336): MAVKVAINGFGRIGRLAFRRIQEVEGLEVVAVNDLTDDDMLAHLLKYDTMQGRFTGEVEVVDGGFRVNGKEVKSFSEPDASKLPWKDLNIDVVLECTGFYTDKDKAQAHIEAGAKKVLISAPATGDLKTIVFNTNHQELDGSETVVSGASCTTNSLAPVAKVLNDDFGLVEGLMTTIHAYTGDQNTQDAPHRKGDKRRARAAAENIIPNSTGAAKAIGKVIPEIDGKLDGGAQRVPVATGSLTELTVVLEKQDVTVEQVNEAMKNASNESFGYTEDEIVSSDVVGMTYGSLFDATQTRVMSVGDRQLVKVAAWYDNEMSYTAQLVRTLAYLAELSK

[5] = molecular target: T4, PRDX5 (Homo sapiens, UniProt P30044); assay: anti-CoA Western blot after in vitro CoAlation; assay type: binding; conditions: covalent mixed disulfide with cysteine; protein:CoA:H2O2 1:3:10, RT, 30 min; monomer and oligomer bands
T4 sequence (P30044 54-214): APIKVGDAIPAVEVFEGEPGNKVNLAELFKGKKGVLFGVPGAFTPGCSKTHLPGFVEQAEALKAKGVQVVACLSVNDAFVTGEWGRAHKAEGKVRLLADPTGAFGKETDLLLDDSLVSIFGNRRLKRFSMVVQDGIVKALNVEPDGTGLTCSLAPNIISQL

[6] = molecular target: T5, YtpP (Bacillus subtilis, UniProt O34357); assay: HPLC ([…] nm) of released CoA; anti-CoA Western blot; assay type: biochemical; conditions: CoA released from 6 uM CoA-MsrA or CoA-PRDX5 by 60 uM enzyme, 1 h, 37 C
T5 sequence (O34357 1-107): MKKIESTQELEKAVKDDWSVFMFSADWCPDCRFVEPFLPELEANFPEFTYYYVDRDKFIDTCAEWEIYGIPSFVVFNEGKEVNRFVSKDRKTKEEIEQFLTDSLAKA

For `CC(C)(COP(=O)(O)OP(=O)(O)OC[C@H]1O[C@@H](n2cnc3c(N)ncnc32)[C@H](O)[C@@H]1OP(=O)(O)O)[C@@H](O)C(=O)NCCC(=O)NCCS` [CoA], the “HPLC (254 nm) of released CoA; anti-CoA Western blot” value [1] was “Following deCoAlation of both substrates by YtpP and TrxA, CoA release was monitored”, the “anti-CoA Western blot after in vitro CoAlation” value [2] was “anti-CoA WB was used to confirm the CoAlation of both proteins” and the “anti-CoA Western blot after incubation with CoAlated protein” value [3] was ““Δ” represents either CoAlated YtpP C28S or YtpP C31S, or CoAlated TrxA C29S”. For the same compound, the “anti-CoA ELISA and Western blot after in vitro CoAlation” value [4] was “high signal was recorded due to the detection of CoA on the CoAlated protein”, the “anti-CoA Western blot after in vitro CoAlation” value [5] was “anti-CoA WB was used to confirm the CoAlation of both proteins” and the “HPLC (254 nm) of released CoA; anti-CoA Western blot” value [6] was “Following deCoAlation of both substrates by YtpP and TrxA, CoA release was monitored”.
